The results in this text go back to patent US5047521A, “5-fluorouracil derivatives” (Otsuka Pharmaceutical Co., Ltd., priority 1986, dated 1991).

The experiment relates to Sarcoma-180. In words: Pharmacological Test I: tumor weight in ICR mice subcutaneously transplanted with Sarcoma-180, oral administration. The class given is in vivo. Particulars: Mus musculus, Sarcoma-180, 240 h, once a day for 7 consecutive days, tumor weight on 10th day after transplantation, read-out: ED50 (50% tumor inhibition dose, T/C = 0.5). Here is the method:
Sarcoma-180 subcultured in an ascites of ICR mice was diluted with a physiological saline solution and subcutaneously transplanted into the backs of ICR mice in an amount of 2×10^7 cells each. Twenty-four hours after the transplantation, a test compound suspended in a 5% solution of gum arabic was orally administered to each of mice once a day for 7 consecutive days.
The solid tumor was isolated from under the dorsal skin of mice on the 10th day after the transplantation to measure the weight of the tumor. There was determined the ratio (T/C) of the weight of tumor (T) cut out from the group of mice treated with the test compound to the weight of tumor (C) from the group of mice not treated therewith. The 50% tumor inhibition dose (ED50 value) in which T/C is 0.5 was determined from the dose-response curve of dosage and the ratio (T/C).

For the molecule `CCC(=O)OC[C@H]1O[C@@H](n2cc(F)c(=O)[nH]c2=O)C[C@@H]1OCc1cccs1`, the ED50 came out at 2 mg/kg.
